pIC50: −log10 of the molar value.

The assay has as its target BTK (Homo sapiens (Human), UniProt Q06187). As to the kind of experiment: BTK enzymatic activity assay (Caliper-based kinase assay). It is filed as biochemical. Conditions: human recombinant BTK 0.5 nM, ATP 16 μM, 3 h room temperature. As to the method:
A Caliper-based kinase assay (Caliper Life Sciences, Hopkinton, Mass.) was used to measure inhibition of BTK kinase activity of a compound of the present disclosure. […] The reaction was then terminated with EDTA, final concentration 20 mM and the phosphorylated reaction product was quantified on a Caliper Desktop Profiler (Caliper LabChip 3000). […] This value is presented as the IC50.

Chain of BTK (Q06187 whole entry): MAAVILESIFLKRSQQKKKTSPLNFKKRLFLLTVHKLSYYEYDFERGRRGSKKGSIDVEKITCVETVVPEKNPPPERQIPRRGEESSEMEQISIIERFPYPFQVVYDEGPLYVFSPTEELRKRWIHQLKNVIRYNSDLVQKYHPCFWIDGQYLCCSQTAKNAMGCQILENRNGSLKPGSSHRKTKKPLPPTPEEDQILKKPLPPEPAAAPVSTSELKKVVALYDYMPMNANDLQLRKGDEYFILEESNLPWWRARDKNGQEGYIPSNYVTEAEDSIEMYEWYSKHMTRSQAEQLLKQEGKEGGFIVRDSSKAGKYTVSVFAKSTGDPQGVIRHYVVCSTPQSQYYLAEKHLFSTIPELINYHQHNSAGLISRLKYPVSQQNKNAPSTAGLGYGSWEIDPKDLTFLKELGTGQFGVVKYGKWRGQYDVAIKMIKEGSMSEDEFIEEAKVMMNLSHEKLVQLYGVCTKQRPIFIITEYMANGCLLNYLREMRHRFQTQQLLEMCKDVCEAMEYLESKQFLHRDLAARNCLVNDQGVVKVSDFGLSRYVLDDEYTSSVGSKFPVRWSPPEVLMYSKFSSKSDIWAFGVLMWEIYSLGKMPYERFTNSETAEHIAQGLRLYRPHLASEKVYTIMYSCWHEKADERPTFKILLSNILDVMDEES

`CC(C)(C)OC(=O)N1CCN(C(C)(C)C=C(C#N)C(=O)N2CCC[C@@H](n3c(=O)n(-c4ccc(Oc5ccccc5)cc4)c4c(N)nccc43)C2)CC1` [Compound 43, (R)-tert-butyl 4-(5-(3-(4-amino-2-oxo-3-(4-phenoxyphenyl)-2,3-dihydro-1H-imidazo[4,5-c]pyridin-1-yl)piperidin-1-yl)-4-cyano-2-methyl-5-oxopent-3-en-2-yl)piperazine-1-carboxylate]: the pIC50 (commonly −log10 of the IC50, conventionally taken in molar units) was 7.65.
Take `CC(=O)N1CCN(C(C)(C)C=C(C#N)C(=O)N2CCC[C@@H](n3c(=O)n(-c4ccc(Oc5ccccc5)cc4)c4c(N)nccc43)C2)CC1` [Compound 44, (R)-4-(4-acetylpiperazin-1-yl)-2-(3-(4-amino-2-oxo-3-(4-phenoxyphenyl)-2,3-dihydro-1H-imidazo[4,5-c]pyridin-1-yl)piperidine-1-carbonyl)-4-methylpent-2-enenitrile]: the pIC50 was 8.48.
The value for `CC(C)(C=C(C#N)C(=O)N1CCC[C@@H](n2c(=O)n(-c3ccc(Oc4ccccc4)cc3)c3c(N)nccc32)C1)N1[C@@H]2CC[C@H]1COC2` [Compound 45, 2-((R)-3-(4-amino-2-oxo-3-(4-phenoxyphenyl)-2,3-dihydro-1H-imidazo[4,5-c]pyridin-1-yl)piperidine-1-carbonyl)-4-((1R,5S)-3-oxa-8-azabicyclo[3.2.1]octan-8-yl)-4-methylpent-2-enenitrile] was 7.60; that for `N#CC(=CC1(c2ccccc2)CC1)C(=O)N1CCC[C@@H](n2c(=O)n(-c3ccc(Oc4ccccc4)cc3)c3c(N)nccc32)C1` [Compound 46, (R)-2-(3-(4-amino-2-oxo-3-(4-phenoxyphenyl)-2,3-dihydro-1H-imidazo[4,5-c]pyridin-1-yl)piperidine-1-carbonyl)-3-(1-phenylcyclopropyl)acrylonitrile] was 7.88; that for `CC(C)(C=C(C#N)C(=O)N1CCC[C@@H](n2c(=O)n(-c3ccc(Oc4ccccc4)cc3)c3c(N)nccc32)C1)N1CCNCC1` [Compound 47, (R)-2-(3-(4-amino-2-oxo-3-(4-phenoxyphenyl)-2,3-dihydro-1H-imidazo[4,5-c]pyridin-1-yl)piperidine-1-carbonyl)-4-methyl-4-(piperazin-1-yl)pent-2-enenitrile] was 8.51.
In the case of `CN1CCN(C(=O)C(C)(C)C=C(C#N)C(=O)N2CCC[C@@H](n3c(=O)n(-c4ccc(Oc5ccccc5)cc4)c4c(N)nccc43)C2)CC1` [Compound 49, (R)-2-(3-(4-amino-2-oxo-3-(4-phenoxyphenyl)-2,3-dihydro-1H-imidazo[4,5-c]pyridin-1-yl)piperidine-1-carbonyl)-4,4-dimethyl-5-(4-methylpiperazin-1-yl)-5-oxopent-2-enenitrile] it was 7.89; in that of `CN(C)C(=O)C(C)(C)C=C(C#N)C(=O)N1CCC[C@@H](n2c(=O)n(-c3ccc(Oc4ccccc4)cc3)c3c(N)nccc32)C1` [Compound 50, (R)-5-(3-(4-amino-2-oxo-3-(4-phenoxyphenyl)-2,3-dihydro-1H-imidazo[4,5-c]pyridin-1-yl)piperidin-1-yl)-4-cyano-N,N,2,2-tetramethyl-5-oxopent-3-enamide], 8.08.
For `N#CC(=CC1CC1(F)F)C(=O)N1CCC[C@@H](n2c(=O)n(-c3ccc(Oc4ccccc4)cc3)c3c(N)nccc32)C1` (stereo partly drawn) [Compound 52, (R)-2-(3-(4-amino-2-oxo-3-(4-phenoxyphenyl)-2,3-dihydro-1H-imidazo[4,5-c]pyridin-1-yl)piperidine-1-carbonyl)-3-(2,2-difluorocyclopropyl)acrylonitrile], the pIC50 was 7.92.
The value for `N#CC(=CC1[C@H]2COC[C@@H]12)C(=O)N1CCC[C@@H](n2c(=O)n(-c3ccc(Oc4ccccc4)cc3)c3c(N)nccc32)C1` (stereo partly drawn) [Compound 53, 2-((R)-3-(4-amino-2-oxo-3-(4-phenoxyphenyl)-2,3-dihydro-1H-imidazo[4,5-c]pyridin-1-yl)piperidine-1-carbonyl)-3-((1R,5S)-3-oxabicyclo[3.1.0]hexan-6-yl)acrylonitrile] was 8.38.
Take `CN1CCN(c2cccc(C(C)(C)C=C(C#N)C(=O)N3CCC[C@@H](n4c(=O)n(-c5ccc(Oc6ccccc6)cc5)c5c(N)nccc54)C3)n2)CC1` [Compound 54, (R)-2-(3-(4-amino-2-oxo-3-(4-phenoxyphenyl)-2,3-dihydro-1H-imidazo[4,5-c]pyridin-1-yl)piperidine-1-carbonyl)-4-methyl-4-(6-(4-methylpiperazin-1-yl)pyridin-2-yl)pent-2-enenitrile]: the pIC50 was 7.75.
For `CC(C)(C=C(C#N)C(=O)N1CCC[C@@H](n2c(=O)n(-c3ccc(Oc4ccccc4)cc3)c3c(N)nccc32)C1)c1ccccn1` [Compound 55, (R)-2-(3-(4-amino-2-oxo-3-(4-phenoxyphenyl)-2,3-dihydro-1H-imidazo[4,5-c]pyridin-1-yl)piperidine-1-carbonyl)-4-methyl-4-(pyridin-2-yl)pent-2-enenitrile], the pIC50 is 8.51.
In the case of `CN1CCN(c2ccnc(C(C)(C)C=C(C#N)C(=O)N3CCC[C@@H](n4c(=O)n(-c5ccc(Oc6ccccc6)cc5)c5c(N)nccc54)C3)n2)CC1` [Compound 56, (R)-2-(3-(4-amino-2-oxo-3-(4-phenoxyphenyl)-2,3-dihydro-1H-imidazo[4,5-c]pyridin-1-yl)piperidine-1-carbonyl)-4-methyl-4-(4-(4-methylpiperazin-1-yl)pyrimidin-2-yl)pent-2-enenitrile] it was 8.11; in that of `CC(C)(N)C=C(C#N)C(=O)N1CCC[C@@H](n2c(=O)n(-c3ccc(Oc4ccccc4)cc3)c3c(N)nccc32)C1` [Compound 57, (R)-4-amino-2-(3-(4-amino-2-oxo-3-(4-phenoxyphenyl)-2,3-dihydro-1H-imidazo[4,5-c]pyridin-1-yl)piperidine-1-carbonyl)-4-methylpent-2-enenitrile], 7.21.
In the case of `CC(C)(C=C(C#N)C(=O)N1CCC[C@@H](n2c(=O)n(-c3ccc(Oc4ccccc4)cc3)c3c(N)nccc32)C1)N1CCC(F)(F)C1` [Compound 58, (R)-2-(3-(4-amino-2-oxo-3-(4-phenoxyphenyl)-2,3-dihydro-1H-imidazo[4,5-c]pyridin-1-yl)piperidine-1-carbonyl)-4-(3,3-difluoropyrrolidin-1-yl)-4-methylpent-2-enenitrile] it was 8.38.
Regarding `CO[C@H]1CCN(C(C)(C)C=C(C#N)C(=O)N2CCC[C@@H](n3c(=O)n(-c4ccc(Oc5ccccc5)cc4)c4c(N)nccc43)C2)C1` [Compound 59, 2-((R)-3-(4-amino-2-oxo-3-(4-phenoxyphenyl)-2,3-dihydro-1H-imidazo[4,5-c]pyridin-1-yl)piperidine-1-carbonyl)-4-((S)-3-methoxypyrrolidin-1-yl)-4-methylpent-2-enenitrile], the pIC50 is 8.59.
In the case of `CO[C@@H]1CCN(C(C)(C)C=C(C#N)C(=O)N2CCC[C@@H](n3c(=O)n(-c4ccc(Oc5ccccc5)cc4)c4c(N)nccc43)C2)C1` [Compound 60, 2-((R)-3-(4-amino-2-oxo-3-(4-phenoxyphenyl)-2,3-dihydro-1H-imidazo[4,5-c]pyridin-1-yl)piperidine-1-carbonyl)-4-((R)-3-methoxypyrrolidin-1-yl)-4-methylpent-2-enenitrile] it was 8.62; in that of `CC(C)(C=C(C#N)C(=O)N1CCC[C@@H](n2c(=O)n(-c3ccc(Oc4ccccc4)cc3)c3c(N)nccc32)C1)N1CCN2C(=O)CC[C@@H]2C1` [Compound 61, 2-((R)-3-(4-amino-2-oxo-3-(4-phenoxyphenyl)-2,3-dihydro-1H-imidazo[4,5-c]pyridin-1-yl)piperidine-1-carbonyl)-4-methyl-4-((R)-6-oxohexahydropyrrolo[1,2-a]pyrazin-2(1H)-yl)pent-2-enenitrile], 8.60.
With `COC[C@H]1CCCN1C(C)(C)C=C(C#N)C(=O)N1CCC[C@@H](n2c(=O)n(-c3ccc(Oc4ccccc4)cc3)c3c(N)nccc32)C1` [Compound 62, 2-((R)-3-(4-amino-2-oxo-3-(4-phenoxyphenyl)-2,3-dihydro-1H-imidazo[4,5-c]pyridin-1-yl)piperidine-1-carbonyl)-4-((R)-2-(methoxymethyl)pyrrolidin-1-yl)-4-methylpent-2-enenitrile], the pIC50 was 8.23.
The value for `COC[C@@H]1CCCN1C(C)(C)C=C(C#N)C(=O)N1CCC[C@@H](n2c(=O)n(-c3ccc(Oc4ccccc4)cc3)c3c(N)nccc32)C1` [Compound 63, 2-((R)-3-(4-amino-2-oxo-3-(4-phenoxyphenyl)-2,3-dihydro-1H-imidazo[4,5-c]pyridin-1-yl)piperidine-1-carbonyl)-4-((S)-2-(methoxymethyl)pyrrolidin-1-yl)-4-methylpent-2-enenitrile] was 8.85; that for `CCC1(C=C(C#N)C(=O)N2CCC[C@@H](n3c(=O)n(-c4ccc(Oc5ccccc5)cc4)c4c(N)nccc43)C2)CCOCC1` [Compound 65, (R)-2-(3-(4-amino-2-oxo-3-(4-phenoxyphenyl)-2,3-dihydro-1H-imidazo[4,5-c]pyridin-1-yl)piperidine-1-carbonyl)-3-(4-ethyltetrahydro-2H-pyran-4-yl)acrylonitrile] was 8.62.
In the case of `COCC1(C=C(C#N)C(=O)N2CCC[C@@H](n3c(=O)n(-c4ccc(Oc5ccccc5)cc4)c4c(N)nccc43)C2)CCOCC1` [Compound 66, (R)-2-(3-(4-amino-2-oxo-3-(4-phenoxyphenyl)-2,3-dihydro-1H-imidazo[4,5-c]pyridin-1-yl)piperidine-1-carbonyl)-3-(4-(methoxymethyl)tetrahydro-2H-pyran-4-yl)acrylonitrile] it was 8.70; in that of `C=C(F)C(=O)N1CCC[C@@H](n2c(=O)n(-c3ccc(Oc4ccccc4)cc3)c3c(N)nccc32)C1` [Compound 67, (R)-4-amino-1-(1-(2-fluoroacryloyl)piperidin-3-yl)-3-(4-phenoxyphenyl)-1H-imidazo[4,5-c]pyridin-2(3H)-one], 8.92.
For “(R)-2-(3-(4-amino-2-oxo-3-(4-phenoxyphenyl)-2,3-dihydro-1H-imidazo[4,5-c]pyridin-1-yl)piperidine-1-carbonyl)-3-(4-methyl-1-(oxetan-3-yl)piperidin-4-yl)acrylonitrile [Compound 42]”, the pIC50 is 8.39.

For the origin of these results see patent publication US9688676B2, “Tyrosine kinase inhibitors” (PRINCIPIA BIOPHARMA INC., priority 2015, dated 2017).
